Measured values as given in patent USRE44971E1, “Method for selection of transformed cells” (priority 2006, dated 2014).

Legend:
[1] = test system: soybean explants inoculated with Agrobacterium harboring pMON73691 (DMO and GFP genes); test: Selection of pMON73691-inoculated soybean explants with 2,4-D or dicamba in liquid medium, GFP+ buds; assay type: cell-based; conditions: selective agent 0.01 mg/L; 375 explants inoculated; pMON73691
Experimental: Freshly isolated soybean explants (mature embryo axes without cotyledons) were inoculated with Agrobacterium strain ABI harboring pMON73691 (containing DMO and GFP genes). After 3-d co-culture with Agrobacterium at 23° C. and a photoperiod of 16-h light and 8-h dark, the explants were cultured in liquid delay medium which contained modified woody plant medium supplemented with 5 mg/l BAP, 200 mg/l carbenicillin, 200 mg/l cefotaxime and 100 mg/l ticarcillin. The explants were in the delay medium for 4 days. They were then transferred to liquid selection medium in PLANTCONs. The selection medium was the same as the delay medium except of addition of various levels of 2,4-D (0.01, 0.1, 1.0 or 2.0 mg/L) or 0.01 mg/L dicamba as shown in Table 9 below. Each PLANTCON contained 60 ml of the selection medium and one piece of foam sponge with 5 slits. Twenty-five explants were evenly inserted into the slits. The cultures were maintained at 28° C. and a photoperiod of 16-h light and 8-h dark, and were examined periodically under a […] equipped for detecting GFP expressing tissues.

[2] = test system: soybean cells transformed with pMON73691
Experimental: Mature seeds of soybean [Glycine max (L.) Merrill] cv. A3525 were imbibed, sterilized, and germinated at room temperature as set forth below. Other examples of soybean genotypes that can readily be used include, but are not limited to, Jack, Williams, Bert, Thorne, Granite, Lambert, Chapman, and Kunitz. Briefly, dry seeds (about 770 g) were soaked for 3 min in 2 L of 200 ppm sodium hypochlorite solution made from commercially available Clorox. The solution was drained and the seeds were set side for about 2 h. About 2 L of bean sterilization/germination medium was then added to the seeds. After about 9-10 h, seeds were ready for hand excision of explants. The bean germination medium contained the following in mg/L—NH4NO3: 240, KNO3: 505, CaCl2.2H2O: 176, MgSO4.7H2O: 493, KH2PO4: 27, H3BO3: 1.86, Na2MoO4.2H2O: 0.216, MnSO4.H2O: 5.07, ZnSO4. 7H2O: 2.58, FeSO4.7H2O: 2.502, KI: 0.249, Na2EDTA. 2H2O: 3.348, CuSO4.5H2O: 0.0008, CoCl2.6H2O: 0.0008, B1: 1.34, B3: 0.5, B6: 0.82, Bravo (75% WP; Diamond Shamrock Company, Cleveland, Ohio): 30, Captan (50% WP; Micro Flo Company, Lakeland, Fla.): 30, Cefotaxime: 125, and Sucrose: 25000, pH 5.8).
The binary vectors described above were mobilized into disarmed Agrobacterium tumefaciens strain C58 (ABI). Agrobacterium inoculum for infection was prepared as follows: 250 ml of LB medium (Luria-Bertani; Difco, Detroit, Mich.) containing 50 mg/l kanamycin (Sigma, St. Louis, Mo.) and 75 mg/l spectinomycin (Sigma, St. Louis, Mo.) was inoculated with 0.5 ml of Agrobacterium stock in glycerol (Acros Organics, Geel, Belgium) and was shaken at 200 rpm at 28° C. for approximately 20-22 h until the OD660 reached 0.8 to 1.0. The Agrobacterium broth was then centrifuged for 25 min at 3500 rpm (about 3565 g) at 2-4° C. After removing the supernatant, the Agrobacterium pellet was re-suspended in inoculation medium containing ⅖× of the macro nutrients, 1/10× of the micro nutrients and vitamins of Gamborg's B5 medium, supplemented with 3.9 g/l MES (Sigma, St. Louis, Mo.), and 30 g/l glucose (PhytoTechnology Laboratories, Shawnee Mission, Kans.), pH 5.4. Lipoic acid (Sigma, St. Louis, Mo.) was added to the Agrobacterium suspension to a final concentration of 0.25 mM after the density of the Agrobacterium cell suspension was adjusted to an OD660 of 0.30 to 0.35.
Agrobacterium-infection and co-cultivation of the explants were conducted as follows: about 100 excised explants were dispensed into the lid of a sterile plastic culture vessel PLANTCON (MP Biomedicals, LLC, Irvine, Calif.). Five ml of Agrobacterium inoculum was added to the explants in each PLANTCON lid. The explants were then sonicated for 20 sec in a sonicator (Ultrasonic Multi Cleaner, Model W-113, Honda, Japan). One piece of Whatmann #1 filter paper (Whatman Inc., Clifton, N.J.) cut to the size of the PLANTCON bottom was placed in the bottom part of the PLANTCON. The explants were transferred from the lid onto the filter paper with the Agrobacterium inoculum. The PLANTCON s were then incubated in a Percival incubator at 16 h light (at about 85-90 μE) and 8 h dark photoperiod and at 23° C. for 2 to 4 d for co-cultivation.
After a co-cultivation period of 2-4 days, explants were first cultured on a medium without dicamba (delay medium) for 3-5 d before being transferred to the selection medium with dicamba. Until transfer from delay medium to selection medium, the explants were kept in the same PLANTCON used for co-cultivation, but 10 or 12 ml of the delay medium was added to each PLANTCON. Alternatively, the explants were transferred to new PLANTCONs, each containing one piece of autoclaved felt (Jo-Ann Fabrics & Crafts, Madison, Wis.)) and 30 ml of the delay medium.

[3] = test system: Wild type Arabidopsis var. Columbia; conditions: 1.0 mg/L in the culture medium; FIG. 8
Experimental: The susceptibility of Arabidopsis to different levels of dicamba was first tested. Wild type Arabidopsis var. Columbia seeds were plated on plant tissue culture medium containing various levels of dicamba. […] Arabidopsis plants were then transformed with the constructs containing DMO polynucleotides using the floral dip method (Clough and Bent, 1998). R1 seeds were plated on the culture medium containing up to 4 mg/L of dicamba.

COc1c(Cl)ccc(Cl)c1C(=O)O [dicamba, 3,6-dichloro-o-anisic acid]
# Explants w/GFP + buds/young shoots at 48DAI [1]: 28
dicamba-tolerant shoots harvested ([2]; 0.01 mg/l in selection medium, from 800 explants, pMON73691): 30
tolerant shoots harvested ([2]; 0.02 mg/l in selection medium, pMON73691): few tolerant shoots were harvested
tolerant shoots obtained ([2]; 0.05 or 0.1 mg/l in selection medium, pMON73691): no tolerant shoots were obtained
tolerant shoots that formed roots on rooting medium and were transferred to soil ([2]; of 30 shoots selected on 0.01 mg/l): Twelve
plants positive for DMO-encoding polynucleotides ([2]; of ten tested, selected on 0.01 mg/l): seven
concentration most efficacious for selecting dicamba-tolerant shoots ([2]; soybean explants, pMON73691): ≤ 0.01 mg/L
susceptibility of wild type Arabidopsis [3]: quite susceptible
